The target in one assay is T1, Adrenergic β2 (Homo sapiens, UniProt P07550).
T1 construct: Adherent H292 cells are removed from tissue culture flasks by treatment with Accutase™ cell detachment solution; endogenous in cells; host or cells: H292 cells
In words: Adrenergic β2 mediated cAMP production in H292 cells (AlphaScreen), concentration response. Format: cell-based. Conditions: for EC50: 60 min, 300 μM rolipram, read-out: β2 pEC50 (converted); for β2 Intrinsic Activity: fraction relative to the maximum activity determined for formoterol. Summed up:
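Intracellular cAMP in lysates read by AlphaScreen, calibrated with cAMP standards; curves fitted for pEC50, with intrinsic activity as a fraction of formoterol's maximum. Agonist exposure 60 min at room temperature after 10 min rolipram (300 μM final), 1% DMSO, HEPES-buffered HBSS pH 7.4.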
On the technique in general: Cyclic AMP is a second messenger, typically raised through Gs and lowered through Gi signalling.

Assay [1] addresses T2, human muscarinic acetylcholine M3 receptor (Homo sapiens, UniProt P20309).
T2 construct: expressed in transfected cells; host or cells: CHO-K1 (Chinese Hamster Ovary) cell membranes
In words: Muscarinic 3 receptor binding assay ([3H]NMS competition, SPA), pIC50. The settings on record: [3H]NMS 0.1 nM, CHO-K1 cell membranes expressing human M3 receptor. The method, boiled down:
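SPA beads precoated with human M3-expressing CHO-K1 membranes were incubated 16 h at room temperature with serially diluted compound and 0.1 nM [3H]NMS (pH 7.4 HEPES buffer, MgCl2, BSA, 1% DMSO). Atropine (1 μM) defined non-specific binding; pIC50 is the 50% reduction in specific binding.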

T1 sequence (P07550 whole entry): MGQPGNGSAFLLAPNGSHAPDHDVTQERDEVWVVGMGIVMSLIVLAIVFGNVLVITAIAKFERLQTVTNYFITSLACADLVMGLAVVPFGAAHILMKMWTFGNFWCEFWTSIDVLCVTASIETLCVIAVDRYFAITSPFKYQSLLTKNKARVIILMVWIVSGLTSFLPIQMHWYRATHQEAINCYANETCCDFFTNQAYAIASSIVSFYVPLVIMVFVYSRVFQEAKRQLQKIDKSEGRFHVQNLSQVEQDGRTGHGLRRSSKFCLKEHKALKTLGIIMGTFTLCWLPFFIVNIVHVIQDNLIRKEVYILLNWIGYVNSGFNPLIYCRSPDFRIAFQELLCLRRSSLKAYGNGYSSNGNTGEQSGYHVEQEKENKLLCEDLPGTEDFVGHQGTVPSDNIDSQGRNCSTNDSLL
T2 sequence (P20309 whole entry): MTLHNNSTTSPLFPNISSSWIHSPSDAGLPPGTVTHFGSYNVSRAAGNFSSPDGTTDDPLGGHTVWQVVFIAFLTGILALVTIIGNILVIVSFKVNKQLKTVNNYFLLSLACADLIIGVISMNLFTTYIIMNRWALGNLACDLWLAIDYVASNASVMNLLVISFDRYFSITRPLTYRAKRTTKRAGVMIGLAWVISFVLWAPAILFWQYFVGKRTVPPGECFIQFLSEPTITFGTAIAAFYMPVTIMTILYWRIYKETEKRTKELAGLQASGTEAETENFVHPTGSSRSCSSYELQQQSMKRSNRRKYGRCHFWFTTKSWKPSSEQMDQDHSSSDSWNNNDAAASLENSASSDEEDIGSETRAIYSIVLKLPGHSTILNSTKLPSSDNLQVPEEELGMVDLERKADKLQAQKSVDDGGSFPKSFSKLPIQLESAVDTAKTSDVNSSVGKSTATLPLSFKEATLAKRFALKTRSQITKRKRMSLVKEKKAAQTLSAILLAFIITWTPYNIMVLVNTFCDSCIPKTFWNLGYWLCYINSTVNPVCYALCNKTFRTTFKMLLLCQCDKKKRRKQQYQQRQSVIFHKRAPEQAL

A word on the IC50: it is the concentration at which inhibition is half-maximal. Read a high IC50 as weaker potency. Turning to `CC(C)c1nc(C(=O)N2CCOC3(CCN(Cc4cccc(CCOCCC(=O)N(CCNCCc5ccc(O)c6c5OCC(=O)N6)CCC(C)(C)C)c4F)CC3)C2)cs1` [Example 17, N-(3,3-Dimethylbutyl)-3-(2-fluoro-3-((4-(2-isopropylthiazole-4-carbonyl)-1-oxa-4,9-diazaspiro[5.5]undecan-9-yl)methyl)phenethoxy)-N-(2-(2-(5-hydroxy-3-oxo-3,4-dihydro-2H-benzo[b][1,4]oxazin-8-yl)ethylamino)ethyl)propanamide ditrifluoroacetate], on Adrenergic β2, the EC50 is 50.1 nM and the “β2 Intrinsic Activity” value came to 1.0. This compound also had an IC50 in assay [1] of 0.316 nM.
Turning to `CCN(CCNCCc1ccc(O)c2[nH]c(=O)sc12)C(=O)CCOCCc1csc(CN2CCC3(CC2)CN(C(=O)c2csc(C(C)C)n2)CCO3)c1` [Example 48, N-Ethyl-N-(2-(2-(4-hydroxy-2-oxo-2,3-dihydrobenzo[d]thiazol-7-yl)ethylamino)ethyl)-3-(2-(5-((4-(2-isopropylthiazole-4-carbonyl)-1-oxa-4,9-diazaspiro[5.5]undecan-9-yl)methyl)thiophen-3-yl)ethoxy)propanamide ditrifluoroacetate], on Adrenergic β2, the EC50 is 200 nM and the “β2 Intrinsic Activity” value came to 0.9. In assay [1], this compound showed an IC50 of 0.2 nM.
The matching figures for `CC(C)c1nc(C(=O)N2CCOC3(CCN(Cc4cccc(CCOCCC(=O)N(CCNCCc5ccc(O)c6c5OCC(=O)N6)C5CCCCC5)c4Cl)CC3)C2)cs1` [Example 27, 3-(2-Chloro-3-((4-(2-isopropylthiazole-4-carbonyl)-1-oxa-4,9-diazaspiro[5.5]undecan-9-yl)methyl)phenethoxy)-N-cyclohexyl-N-(2-(2-(5-hydroxy-3-oxo-3,4-dihydro-2H-benzo[b][1,4]oxazin-8-yl)ethylamine)ethyl)propanamide ditrifluoroacetate]: 20 nM, 0.9 and 2 nM.
The matching figures for `CC(C)c1nc(C(=O)N2CCOC3(CCN(Cc4cccc(SCCOCCC(=O)N(C)CCNCCc5ccc(O)c6[nH]c(=O)sc56)c4)CC3)C2)cs1` [Example 55, N-(2-(2-(4-Hydroxy-2-oxo-2,3-dihydrobenzo[d]thiazol-7-yl)ethylamino)ethyl)-3-(2-(3-((4-(2-isopropylthiazole-4-carbonyl)-1-oxa-4,9-diazaspiro[5.5]undecan-9-yl)methyl)phenylthio)ethoxy)-N-methylpropanamide ditrifluoroacetate]: 100 nM, 0.6 and 0.126 nM.
The matching figures for `CC(C)c1nc(C(=O)N2CCOC3(CCN(Cc4cccc(CCOCCC(=O)N(CCNCCc5ccc(O)c6c5OCC(=O)N6)[C@H](C)C(C)C)c4F)CC3)C2)cs1` [Example 12, R)-3-(2-Fluoro-3-((4-(2-isopropylthiazole-4-carbonyl)-1-oxa-4,9-diazaspiro[5.5]undecan-9-yl)methyl)phenethoxy)-N-(2-(2-(5-hydroxy-3-oxo-3,4-dihydro-2H-benzo[b][1,4]oxazin-8-yl)ethylamino)ethyl)-N-(3-methylbutan-2-yl)propanamide ditrifluoroacetate]: 39.8 nM, 1.0 and 0.501 nM.
For `CCN(CCNCCc1ccc(O)c2c1OCC(=O)N2)C(=O)CCOCCc1cccc(CN2CCC3(CC2)CN(C(=O)c2csc(C4CCCC4)n2)CCO3)c1F` [Example 25, 3-(3-((4-(2-Cyclopentylthiazole-4-carbonyl)-1-oxa-4,9-diazaspiro[5.5]undecan-9-yl)methyl)-2-fluorophenethoxy)-N-ethyl-N-(2-(2-(5-hydroxy-3-oxo-3,4-dihydro-2H-benzo[b][1,4]oxazin-8-yl)ethylamino)ethyl)propanamide ditrifluoroacetate], at Adrenergic β2, the EC50 was 39.8 nM and the “β2 Intrinsic Activity” value stood at 0.8. In assay [1], this compound had an IC50 of 0.158 nM.
